Results taken from patent US20090280160A1, “PHENYLEPHRINE PHARMACEUTICAL FORMULATIONS AND COMPOSITIONS FOR TRANSMUCOSAL ABSORPTION” (Schering-Plough Healthcare Products, Inc., priority 2007, published 2009).
“Also recorded” adds a separate entry of the source.

Columns and labels:
[1] = in vivo; cited from earlier work
[2] = cited from earlier work
α2c adrenoreceptor [3] = molecular target: T1, α2c adrenoreceptor (Homo sapiens, UniProt P18825); assay: Competition binding, [3H]-UK14304, α2c CHO cell membranes; conditions: for inhibition of [3H]-UK14304 binding, α2c (in words): CHO cell membranes
T1 construct: expressed in transfected cells; host or cells: CHO (Chinese hamster ovary) cells, membranes
T1 sequence (P18825 1-462): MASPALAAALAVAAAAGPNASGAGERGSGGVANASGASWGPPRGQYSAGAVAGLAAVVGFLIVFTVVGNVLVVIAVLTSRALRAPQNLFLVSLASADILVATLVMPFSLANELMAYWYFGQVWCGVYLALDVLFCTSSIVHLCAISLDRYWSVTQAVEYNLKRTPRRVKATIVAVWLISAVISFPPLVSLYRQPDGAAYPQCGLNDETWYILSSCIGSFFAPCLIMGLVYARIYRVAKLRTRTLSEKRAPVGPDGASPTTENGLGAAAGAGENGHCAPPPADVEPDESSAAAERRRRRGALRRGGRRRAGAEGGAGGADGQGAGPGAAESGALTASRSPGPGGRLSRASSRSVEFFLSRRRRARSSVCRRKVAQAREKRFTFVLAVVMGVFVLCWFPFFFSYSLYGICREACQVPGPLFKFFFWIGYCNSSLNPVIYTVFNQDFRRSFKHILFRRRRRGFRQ
Description: (§1) The affinity and activity of phenylephrine metabolites were evaluated in human recombinant α1 and α2 adrenoreceptor binding and activity assays. […] Affinity of the metabolites was determined by receptor binding assays. Functional activity of the metabolites was assessed using an [^35S]-GTPγS binding exchange assay for the α2 receptor subtypes and a cell-based calcium flux response for the α1 receptor subtypes.
(§2) Competition Binding Assays
(§3) Competition binding assays for the α2 adrenoreceptors were performed using 20 μg membrane protein per well in binding buffer (75 mM Tris-HCl pH 7.4, 12.5 mM MgCl2, […] EDTA, 0.2% bovine serum albumin). […] Binding was terminated by rapid filtration through GF/C unifilter plates, presoaked with 0.3% polyethylenimine, with five washes with 0.5 ml cold 50 mM Tris-HCl ph 7.4, using a Packard Filtermate Harvester. After drying, bound radioactivity was determined by liquid scintillation counting (Packard TopCount) with Microscint 20, 50 μl/well. Binding data were analyzed using GraphPad Prism.
(§4) Each metabolite was evaluated in each assay in at least 2 independent experiments and a representative assay of each metabolite/assay combination is shown.

α2c adrenoreceptor [4] = molecular target: T1, α2c adrenoreceptor; assay: [35S]-GTPγS binding exchange, α2c CHO cell membranes; type: biochemical; conditions: for stimulation of [35S]-GTPγS binding, α2c (in words): CHO cell membranes
Description: as §1
(§5) Assay buffer was 75 mM Tris-HCl pH 7.4, 12.5 mM MgCl2, 2 mM EDTA and 1 μM GDP. Plates were counted on a Packard TopCount. The percent increase over basal binding of [^35S]-GTPγS, a measure of efficacy, was calculated as follows: 100×[[mean total sample cpm−basal cpm]÷by basal cpm]. Basal cpm was defined as the mean cpm in the absence of agonist compound minus the mean non-specific binding cpm.
as §4

α1b adrenoreceptor [5] = molecular target: T2, α1b adrenoreceptor (Homo sapiens, UniProt P35368); assay: Competition binding, [3H]-prazosin, α1b CHO cell membranes; conditions: for inhibition of 3H-prazosin binding, α1b (in words): CHO cell membranes
T2 construct: expressed in transfected cells
T2 sequence (P35368 1-520): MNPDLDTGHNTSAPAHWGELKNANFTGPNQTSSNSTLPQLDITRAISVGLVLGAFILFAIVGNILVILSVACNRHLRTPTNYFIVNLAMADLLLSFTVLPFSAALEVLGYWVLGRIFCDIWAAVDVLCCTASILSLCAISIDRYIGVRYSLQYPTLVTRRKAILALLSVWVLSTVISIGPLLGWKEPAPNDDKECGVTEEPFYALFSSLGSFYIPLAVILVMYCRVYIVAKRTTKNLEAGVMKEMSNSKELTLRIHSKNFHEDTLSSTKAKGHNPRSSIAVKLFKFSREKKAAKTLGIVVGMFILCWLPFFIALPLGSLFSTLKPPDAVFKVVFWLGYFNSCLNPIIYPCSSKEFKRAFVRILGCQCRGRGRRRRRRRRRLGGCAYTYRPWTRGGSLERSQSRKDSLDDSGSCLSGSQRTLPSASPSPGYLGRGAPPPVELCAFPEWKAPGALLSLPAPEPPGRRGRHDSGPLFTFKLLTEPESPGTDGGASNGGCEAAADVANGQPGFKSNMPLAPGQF
Description: as §1, §2, §3, §4

α1b adrenoreceptor [6] = molecular target: T2, α1b adrenoreceptor; assay: Cellular calcium flux (FLIPR), α1b expressing CHO cells; type: cell-based; conditions: α1b expressing CHO cells
Description: as §1
(§6) Intracellular calcium levels were measured using a fluorometric imaging plate reader (FLIPR). Cells expressing α1 adrenoreceptors were cultured overnight at 15,000 cells/well in 96 well black-wall clear bottom plates (Packard). Adherent cells were loaded for 1 hour at 37° C. using the FLIPR Calcium Plus Assay Kit (Molecular Probes, Eugene, Oreg.), which included 2.5 mM probenecid (Sigma). Compounds (at 10 mM in 100% DMSO) were diluted in diluting buffer (HBSS, 20 mM HEPES, 2.5 mM probenecid, 0.5% BSA, pH 7.4). A titration of norepinephrine was included in every experiment and norepinephrine (at 1 μM) was also used as a plate standard on each assay plate. Cells were maintained at 37° C. throughout all calcium measurements. Fluorescence data was collected at 1 second interval for 60 seconds, followed by collection at 2 second intervals for 30 seconds. Background fluorescence was quantitated in wells containing cells with no additions and was subtracted from all experimental samples. All conditions were done in quadruplicate. Non-linear regression analysis using GraphPad Prism was used to calculate EC50 values.
as §4

α1a adrenoreceptor [7] = molecular target: T3, α1a adrenoreceptor (Homo sapiens, UniProt P35348); assay: Competition binding, [3H]-prazosin, α1a CHO cell membranes; conditions: for inhibition of 3H-prazosin binding, α1a (in words): CHO cell membranes
T3 construct: expressed in transfected cells
T3 sequence (P35348 1-466): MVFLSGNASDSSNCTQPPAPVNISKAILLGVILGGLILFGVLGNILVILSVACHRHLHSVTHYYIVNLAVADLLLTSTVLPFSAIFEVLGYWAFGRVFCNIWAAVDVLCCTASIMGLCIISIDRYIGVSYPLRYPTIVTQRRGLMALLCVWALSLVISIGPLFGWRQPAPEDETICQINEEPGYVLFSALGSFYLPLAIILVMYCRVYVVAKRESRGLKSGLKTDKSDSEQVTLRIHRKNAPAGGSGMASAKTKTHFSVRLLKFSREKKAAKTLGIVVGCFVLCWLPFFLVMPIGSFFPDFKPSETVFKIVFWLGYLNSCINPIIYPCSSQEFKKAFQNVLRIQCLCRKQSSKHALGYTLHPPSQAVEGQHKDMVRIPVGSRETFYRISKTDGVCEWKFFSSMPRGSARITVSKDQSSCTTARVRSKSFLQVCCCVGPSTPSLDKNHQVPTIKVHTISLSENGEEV

α2b adrenoreceptor [8] = molecular target: T4, α2b adrenoreceptor (Homo sapiens, UniProt P18089); assay: [35S]-GTPγS binding exchange, α2b CHO cell membranes; type: biochemical; conditions: for stimulation of [35S]-GTPγS binding, α2b (in words): CHO cell membranes
T4 construct: expressed in transfected cells; host or cells: CHO (Chinese hamster ovary) cells, membranes
T4 sequence (P18089 1-450): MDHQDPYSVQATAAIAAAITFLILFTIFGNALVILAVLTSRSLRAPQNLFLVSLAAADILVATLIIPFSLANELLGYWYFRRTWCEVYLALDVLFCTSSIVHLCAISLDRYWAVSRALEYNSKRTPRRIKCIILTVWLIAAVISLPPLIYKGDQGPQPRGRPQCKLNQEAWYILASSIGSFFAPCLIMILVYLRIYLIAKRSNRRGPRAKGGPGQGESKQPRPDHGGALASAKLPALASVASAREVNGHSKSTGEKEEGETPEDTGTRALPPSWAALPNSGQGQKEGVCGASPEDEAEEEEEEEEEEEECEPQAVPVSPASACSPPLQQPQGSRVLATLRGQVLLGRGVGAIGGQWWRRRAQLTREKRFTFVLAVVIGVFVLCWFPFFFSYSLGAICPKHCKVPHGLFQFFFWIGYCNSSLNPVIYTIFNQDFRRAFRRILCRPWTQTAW
Description: as §1, §5, §4

α2b adrenoreceptor [9] = molecular target: T4, α2b adrenoreceptor; assay: Competition binding, [3H]-UK14304, α2b CHO cell membranes; conditions: for inhibition of [3H]-UK14304 binding, α2b (in words): CHO cell membranes
Description: as §1, §2, §3, §4

α1a adrenoreceptor [10] = molecular target: T3, α1a adrenoreceptor; assay: Cellular calcium flux (FLIPR), α1a expressing CHO cells; type: cell-based; conditions: α1a expressing CHO cells
Description: as §1, §6, §4

[11] = oral, approximately 24 mg of PE, healthy volunteers; cited from earlier work
[12] = at 100 μM (highest concentration evaluated)
[13] = listed as phenylephrine sulfate

Compound | half-life (t1/2) / elimination half-life [1] | inhibition of [3H]-UK14304 binding, α2c (in words) (α2c adrenoreceptor [3]) | stimulation of [35S]-GTPγS binding, α2c (in words) (α2c adrenoreceptor [4]) | inhibition of 3H-prazosin binding, α1b (in words) (α1b adrenoreceptor [5]) | increase in intracellular calcium, α1b calcium assay (in words) (α1b adrenoreceptor [6]) | inhibition of 3H-prazosin binding, α1a (in words) (α1a adrenoreceptor [7]) | stimulation of [35S]-GTPγS binding, α2b (in words) (α2b adrenoreceptor [8]) | inhibition of [3H]-UK14304 binding, α2b (in words) (α2b adrenoreceptor [9]) | increase in intracellular calcium, α1a calcium assay (in words) (α1a adrenoreceptor [10]) | further results
CN1CCC(=C2c3ccccc3CCc3cccnc32)CC1 [Azatadine] | 9 to 12 h |  |  |  |  |  |  |  |  | 
C[C@@H]1CN([C@H]2CC[C@](C#N)(c3ccc(F)cc3)CC2)CC[C@]1(C(=O)O)c1ccccc1 [Levocabastine] |  |  |  |  |  |  |  |  |  | duration of action ([2]; in vivo): 16 to 24 h
CNC[C@H](O)c1cccc(O)c1 [PE, (R)-(−)-phenylephrine, reference compound] |  | inhibits [^3H]-UK14304 binding | stimulates [^35S]-GTPγS binding | inhibits binding | increases intracellular calcium | inhibits binding | stimulates [^35S]-GTPγS binding | inhibits [^3H]-UK14304 binding | increases intracellular calcium | 
Clc1ccc2c(c1)CCc1cccnc1C2=C1CCNCC1 [desloratadine] | 15 to 19 h |  |  |  |  |  |  |  |  | 
CCOC(=O)N1CCC(=C2c3ccc(Cl)cc3CCc3cccnc32)CC1 [loratadine] |  |  |  |  |  |  |  |  |  | time to begin to elicit antihistaminic effect ([2]; exemplary conventional formulation): 1 to 3 h
(R)-PE sulfate |  | but not; also recorded: no appreciable binding | No activity | No appreciable binding | minimal activity; also recorded: A very low level of activity | No appreciable binding | No activity | no appreciable binding | no and A very low level of activity | Ki (α2c adrenoreceptor [3]; [3H]-UK14304, read-out: Ki, a2c Binding (class symbol)): > 100 µM; binding / affinity, α2c receptor (in words) (α2c adrenoreceptor [3]; [12]): very minimal binding; also recorded: no affinity; metabolite excreted in the urine [11]: 47 % of dose; activity in α2c [35S]-GTPγS assay (in words) (α2c adrenoreceptor [4]; highest concentration, 100 μM): no activity; Ki (α1b adrenoreceptor [5]; [3H]-prazosin, read-out: Ki, a1b Binding (class symbol)): > 100 µM; binding / affinity, α1b receptor (in words) (α1b adrenoreceptor [5]; concentrations up to 100 μM): no affinity; increase in intracellular calcium, α1b calcium assay (in words) (α1b adrenoreceptor [6]; [13]): induces minimal intracellular calcium increases; binding / affinity, α1a receptor (in words) (α1a adrenoreceptor [7]; concentrations up to 100 μM): no affinity; activity in α2b [35S]-GTPγS assay (in words) (α2b adrenoreceptor [8]; highest concentration, 100 μM): no activity; Ki (α2b adrenoreceptor [9]; [3H]-UK14304, read-out: Ki, a2b Binding (class symbol)): > 100 µM; binding / affinity, α2b receptor (in words) (α2b adrenoreceptor [9]; [12]): very minimal binding; also recorded: no affinity; increase in intracellular calcium, α1a calcium assay (in words) (α1a adrenoreceptor [10]; [13]): induces minimal intracellular calcium increases
